4 compounds from patent US7776917B2, “Non-standard amino acid conjugates of amphetamine and processes for making and using the same” (priority 2006, dated 2010) can be followed below.

A short description of data set [1]: Intranasal PK study d-amphetamine, hArg-Amp, Orn-Amp (Example 10). As to conditions: […] equivalent, n=5, d-amphetamine in plasma, given in minutes.
The nature of data set [2]: Intravenous PK study d-amphetamine, hArg-Amp, Orn-Amp (Example 11). As to conditions: […] equivalent, n=5, d-amphetamine in plasma.
For data set [3] the following is noted: oral; hArg-Amp = 100%.
The nature of data set [4]: Parenteral (intranasal, intravenous) administration of hArg-Amp, release of amphetamine (Example 1). As to conditions: parenteral routes (intranasal, intravenous).
Data set [5] is described as follows: Oral PK study Lys-Amp, hArg-Amp, Orn-Amp, Cit-Amp (Example 9). As to conditions: in words.
The nature of data set [6]: Average results of 4 oral PK studies, Lys-Amp vs hArg-Amp (Example 7). As to conditions: average of 4 oral studies, n=20; Lys-Amp = 100%.

Read-outs that look alike come from different tables or passages of the source.

For the compound `C[C@H](N)Cc1ccccc1` [d-amp, d-amphetamine], the Tmax in data set [1] and in data set [2] was 15 m each time.

For the compound `C[C@@H](Cc1ccccc1)NC(=O)[C@@H](N)CCCCN=C(N)N.Cl.Cl` [hArg-Amp, l-homoarginine-d-amphetamine Dihydrochloride], the “% Tmax” value in data set [3] was determined as 100%. The release of amphetamine in data set [4] is listed as < 50%.

With “l-citrulline-d-amphetamine hydrochloride [Cit-Amp]”, the “Tmax compared to Lys-Amp” value in data set [5] is “significantly shifted the Tmax”.

For the compound l-lysine-d-amphetamine [Lys-Amp], the “% Tmax” value in data set [6] was 100%.
